Test results published in patent US20230053540A1, “TREATMENT OF LIVER INJURY” (Massachusetts Institute of Technology, priority 2019, published 2023).

Tested on: hepatocytes
Assay: Seq-Well scRNA-Seq of hepatocytes after APAP overdose (signature scores, DEG vs untreated)
Format: in vivo, mouse
Conditions: APAP vs UT, composite DEG

CC(=O)Nc1ccc(O)cc1 [APAP, acetaminophen]
Ndufs4 logFC: −0.3132 | Ndufs8 logFC: −0.3614 | Ndufv2 logFC: −0.3276 | Ndufv3 logFC: −0.3971 | Neat1 logFC: 0.6374 | Nedd4l logFC: 0.2812 | Nedd8 logFC: −0.3564 | Nfe2l1 logFC: 0.2703 | Nid1 logFC: 0.3426 | Nme1 logFC: −0.4329 | Nop10 logFC: −0.2919 | Nop58 logFC: 0.6634 | Nr0b2 logFC: −0.293 | Nr1d2 logFC: 0.4306 | Nr1i3 logFC: 0.4259 | Nr2f6 logFC: −0.3754 | Nrip1 logFC: 0.2729 | Oaf logFC: −0.7329 | Oat logFC: −1.225 | Orm1 logFC: 0.3651 | Osbpl1a logFC: 0.2728 | Osbpl9 logFC: 0.2788 | Ostc logFC: 0.2658 | Otc logFC: −0.299 | P4hb logFC: 0.4052 | Pabpc1 logFC: 0.4949 | Pacsin2 logFC: 0.3708 | Padi3 logFC: 0.2957 | Pak2 logFC: 0.2815 | Palld logFC: 0.3414 | Pank1 logFC: −0.3527 | Paqr9 logFC: −0.3323 | Pbld1 logFC: −0.4425 | Pcbd1 logFC: −0.6878 | Pcbp2 logFC: 0.3103 | Pck1 logFC: −0.6522 | Pdia3 logFC: 0.5938 | Pecr logFC: −0.3981 | Pex11a logFC: 0.3508 | Pgrmc1 logFC: 0.3502 | Phc2 logFC: 0.312 | Phf20l1 logFC: 0.3085 | Phlda1 logFC: 0.5492 | Pigr logFC: 0.3868 | Pipox logFC: 0.2725 | Pla2g7 logFC: 0.2823 | Plek logFC: 0.3089 | Plin2 logFC: 1.461 | Plin5 logFC: 0.3521 | Plk3 logFC: 0.4166 | Plscr1 logFC: 0.4445 | Pnkd logFC: −0.2928 | Pnpla7 logFC: −0.3016 | Pnpla8 logFC: 0.2956 | Pon1 logFC: −0.6858 | Por logFC: 0.336 | Ppara logFC: 0.3589 | Ppp1r12a logFC: 0.3563 | Prdx1 logFC: −0.5292 | Prdx4 logFC: −0.4176 | Prdx5 logFC: −0.2821 | Prkaa2 logFC: 0.2636 | Prodh2 logFC: 0.3453 | Prox1 logFC: 0.2663 | Proz logFC: 0.2632 | Prrc2c logFC: 0.4393 | Psat1 logFC: 0.3012 | Psen2 logFC: −0.9474 | Psmb1 logFC: −0.3585 | Psmb3 logFC: −0.3303 | Psmb6 logFC: −0.3194 | Psme1 logFC: −0.394 | Psme4 logFC: 0.2626 | Ptp4a1 logFC: 0.2627 | Ptpn2 logFC: 0.2734 | Ptprc logFC: 0.4165 | Ptprf logFC: 0.3071 | Purb logFC: 0.3525 | Pxk logFC: 0.2819 | Pxmp2 logFC: −0.3671 | Pzp logFC: 0.416 | Rarres1 logFC: −0.4556 | Rbm25 logFC: 0.4215 | Rcan1 logFC: 0.7073 | Rdh7 logFC: −0.4186 | Rdx logFC: 0.3736 | Reep3 logFC: 0.409 | Reep6 logFC: 0.5143 | Rell1 logFC: 0.5912 | Retnlg logFC: 0.3751 | Rexo2 logFC: −0.3263 | Rgn logFC: −1.573 | Rgs16 logFC: 0.3226 | Rlim logFC: 0.3102 | Rnase4 logFC: −1.049 | Rnaseh2c logFC: −0.3257 | Rnf13 logFC: 0.2553 | Rnf144a logFC: 0.313 | Romo1 logFC: −0.3359 | Rpl4 logFC: 0.2839 | Rpl13a logFC: −0.3815 | Rpl13 logFC: −0.2997 | Rpl14 logFC: −0.2776 | Rpl38 logFC: 0.2543 | Rplp0 logFC: −0.4309 | Rps3 logFC: −0.3493 | Rps8 logFC: −0.2746 | Rps9 logFC: −0.3718 | Rps10 logFC: −0.3369 | Rps15 logFC: −0.4552 | Rps18 logFC: −0.4885 | Rps21 logFC: −0.3645 | Rps27l logFC: −0.8659 | Rsp14 logFC: −0.4021 | Saa2 logFC: 0.9645 | Sardh logFC: 0.2692 | Sbno1 logFC: 0.3671 | Sc4mol logFC: −0.3262 | Scaf11 logFC: 0.3598 | Scd1 logFC: 0.7267 | Sco2 logFC: −0.2929 | Scp2 logFC: −0.5191 | Sdhb logFC: −0.2896 | Sdhc logFC: 0.3944 | Sdr9c7 logFC: −0.26 | Sdsl logFC: 0.2593 | Sec14l2 logFC: −0.7897 | Sec31a logFC: 0.263 | Sec61b logFC: −0.2903 | Sec62 logFC: 0.2516 | Sel1l logFC: 0.336 | Selk logFC: −0.3383 | Serpina1b logFC: −0.3018 | Serpina1c logFC: −0.4026 | Serpina3m logFC: 0.9674 | Serpina3n logFC: 0.8483 | Serpina10 logFC: 0.565 | Serpina12 logFC: −0.4534 | Serpinf1 logFC: 0.3196 | Serping1 logFC: 0.4128 | Sf1 logFC: 0.3023 | Sfpq logFC: 0.394 | Sgk1 logFC: 0.2843 | Sh3bgrl logFC: 0.2513 | Sh3glb1 logFC: 0.326 | Shb logFC: 0.3152 | Shmt1 logFC: −0.3932 | Sirt3 logFC: −0.346 | Slc4a4 logFC: 0.4203 | Slc7a2 logFC: 0.3526 | Slc10a1 logFC: −0.3258 | Slc16a6 logFC: 0.9114 | Slc22a1 logFC: −0.7979 | Slc22a30 logFC: −0.3746 | Slc25a10 logFC: 0.3433 | Slc25a13 logFC: 0.2855 | Slc25a20 logFC: 0.38 | Slc25a47 logFC: 0.5027 | Slc27a2 logFC: 0.3853 | Slc27a5 logFC: 0.337 | Slc38a10 logFC: 0.2855 | Slc39a14 logFC: 1.013 | Slc40a1 logFC: 0.467 | Slco1b2 logFC: −1.087 | Slirp logFC: −0.3085 | Smap2 logFC: 0.3489 | Smdt1 logFC: −0.3673 | Smg1 logFC: 0.335 | Snord13 logFC: 0.2611 | Snx10 logFC: 0.2856 | Sod1 logFC: −0.4393 | Sord logFC: −0.3836 | Spp2 logFC: −0.3821 | Sptbn1 logFC: 0.4227 | Srebf1 logFC: 0.2762 | Srgn logFC: 0.9341 | Srp72 logFC: 0.3107 | Srpr logFC: 0.3052 | Srsf11 logFC: 0.4012 | Ssr3 logFC: 0.5218 | St3gal5 logFC: 0.6076 | Stbd1 logFC: −0.2732 | Steap4 logFC: 0.476 | Stk17b logFC: 0.2911 | Stom logFC: 0.3232 | Stt3b logFC: 0.3194 | Suco logFC: 0.251 | Suds3 logFC: 0.2539 | Sult1d1 logFC: 0.4599 | Supt6 logFC: 0.2913 | Surf4 logFC: 0.2586 | Syncrip logFC: 0.2748 | Tars logFC: 0.4921 | Tbl1xr1 logFC: 0.3075 | Tcea3 logFC: −0.355 | Tceb2 logFC: −0.3207 | Tfpi2 logFC: −0.3663 | Tgm2 logFC: 0.3993 | Tgoln1 logFC: 0.3883 | Timm8b logFC: −0.3936 | Timm13 logFC: −0.433 | Tjp1 logFC: 0.2862
